Laboratory results reported in the supplement of paper PMC4862054.

Experiments:
Assay in all cases: normalised response (% of control), CellTiter-Glo; higher = more viable cells (100 = DMSO, 0 = benzethonium chloride kill control)
Details in all cases: incubation time: 72 h
[1] = tested on: BT-474
Procedure, shortened: (§1)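 Breast cancer cell lines in 20 µl suspension were added to 384-well plates containing compound at 5 concentrations, spaced in 10-fold steps across a 10,000-fold range chosen for each compound, and incubated for 72 h. CellTox Green fluorescence was read at 485/520 nm, followed by CellTiter-Glo luminescence after 10 min at room temperature. Signals on each plate were normalised so that 0.1 % DMSO equals 100 and a positive kill control equals 0. Every value in the table is the normalised signal at one concentration of the series.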

[2] = tested on: BT-549
Procedure, shortened: as §1

[3] = tested on: CAL-120
Procedure, shortened: as §1

[4] = tested on: CAL-148
Procedure, shortened: as §1

[5] = tested on: CAL-51
Procedure, shortened: as §1

[6] = tested on: CAL-85-1
Procedure, shortened: as §1

[7] = tested on: DU-4475
Procedure, shortened: as §1

[8] = tested on: HCC1143
Procedure, shortened: as §1

[9] = tested on: HCC1599
Procedure, shortened: as §1

[10] = tested on: HCC1937
Procedure, shortened: as §1

[11] = tested on: HDQ-P1
Procedure, shortened: as §1

[12] = tested on: Hs578T
Procedure, shortened: as §1

[13] = tested on: MCF-10A
Procedure, shortened: as §1

[14] = tested on: MDA-MB-231
Procedure, shortened: as §1

[15] = tested on: MDA-MB-436
Procedure, shortened: as §1

[16] = tested on: MDA-MB-453
Procedure, shortened: as §1

[17] = tested on: MDA-MB-468
Procedure, shortened: as §1

[18] = tested on: MFM-223
Procedure, shortened: as §1

[19] = tested on: SK-BR-3
Procedure, shortened: as §1

SMILES	normalised response [1]	normalised response [2]	normalised response [3]	normalised response [4]	normalised response [5]	normalised response [6]	normalised response [7]	normalised response [8]	normalised response [9]	normalised response [10]	normalised response [11]	normalised response [12]	normalised response [13]	normalised response [14]	normalised response [15]	normalised response [16]	normalised response [17]	normalised response [18]	normalised response [19]
CCN(CC)CCCC(C)Nc1ccnc2cc(Cl)ccc12 (centres undefined) [Chloroquine] (10 nM)	96.5%	107%	103%	89.2%	126%	99.8%	92.2%	104%	90.9%	95.3%	99%	104%	101%	101%	113%	103%	95.2%	96.7%	92.5%
CC1(COc2ccc3c(c2)ncn3-c2ccc3cccc(N4CCC(N)CC4)c3n2)COC1 [Crenolanib] (10 nM)	105%	95.6%	97.8%	110%	90.6%	99.2%	103%	105%	96.2%	104%	103%	98.7%	106%	106%	94.8%	94.6%	102%	108%	
CC(C)(C)c1nc(-c2cccc(NS(=O)(=O)c3c(F)cccc3F)c2F)c(-c2ccnc(N)n2)s1 [Dabrafenib] (2.5 nM)	101%	99.1%	98.5%	112%	109%	99%	104%	105%	99.8%	98.4%	105%	103%	112%	102%	101%	111%	105%	101%	
Nc1ccn([C@@H]2O[C@H](CO)[C@@H](O)C2(F)F)c(=O)n1 [Gemcitabine] (1 nM)	100%	95%	95.9%	95.6%	66%	101%	94%	100%	109%	95.7%	99.3%	98.1%	109%	97.4%	95.5%	101%	95.7%	101%	
O=C(O)CNC(=O)c1c(O)c2ccccc2n(Cc2ccccc2)c1=O [IOX-2] (50 nM)	96.9%	93.9%	98.1%	98.7%	88%	97.1%	95.1%	94.5%	94.1%	93.6%	95.7%	102%	103%	99.5%	96.9%	86.3%	92.9%	104%	
CC(=O)[C@]1(O)Cc2c(O)c3c(c(O)c2[C@@H](O[C@H]2C[C@H](N)[C@H](O)[C@H](C)O2)C1)C(=O)c1ccccc1C3=O [Idarubicin] (1 nM)	111%	90.5%	104%	116%	91.5%	103%	101%	107%	91.1%	99.9%	99.7%	99.5%	105%	109%	113%	101%	97.7%	109%	
C/C(=C\c1csc(C)n1)[C@@H]1C[C@@H]2O[C@]2(C)CCC[C@H](C)[C@H](O)[C@@H](C)C(=O)C(C)(C)[C@@H](O)CC(=O)N1 [Ixabepilone] (1 nM)	106%	95.5%	100%	102%	129%	99.8%	102%	98.1%	85.5%	97.6%	98.5%	105%	103%	101%	99.3%	107%	104%	106%	
CN(C)C(=N)NC(=N)N [Metformin] (100 nM)	91.7%	99%	108%	93.7%	117%	95.7%	93%	101%	97.6%	99.6%	99.4%	94%	77.5%	102%	95.4%	76.8%	88%	87.2%	
CC[C@H](CO)Nc1nc(NCc2ccccc2)c2ncn(C(C)C)c2n1 [Seliciclib] (10 nM)	102%	99.9%	91.9%	110%	113%	108%	103%	98.7%	103%	104%	94.5%	105%	107%	104%	110%	104%	98.9%	101%	
O=[N+]([O-])c1ccc2c(c1)S(=O)(=O)C=C2 [Stattic] (50 nM)	98.6%	94.6%	98.9%	103%	107%	96.5%	99.9%	106%	110%	102%	100%	103%	102%	101%	96.4%	97.1%	96.9%	102%	
O=C(CCCCCCC(=O)Nc1ccccc1)NO [Vorinostat] (10 nM)	97.6%	106%	87.9%	98.6%	117%	105%	105%	98.4%	102%	101%	94.6%	98.1%	102%	98.2%	105%	90.3%	106%	101%	
